Common to all, as to format: binding
Assay [1] deals with T1, integrin αvβ3 (Homo sapiens, UniProt P05106+P06756).
The target of assay [2] is T1, integrin αvβ3. The source holds these as a separate data set.
The target in assay [3] is T1, integrin αvβ3. The following applies: for IC50: IC50 (competitive displacement), day 7, competitor [^125I]I-echistatin.

Read-outs that look alike come from different tables or passages of the source.

In general, IC50 refers to the concentration that inhibits the measured activity by half.

Turning to `N=C(N)NCCC[C@@H]1NC(=O)[C@H](CCCCNC(=O)CCOCCOCCOCCOCCOCCOCCNC(=O)CC[C@H](C(=O)O)N2CCN(CC(=O)O)CCN(CC(=O)O)CC2)NC(=O)[C@@H](Cc2ccccc2)NC(=O)[C@H](CC(=O)O)NC(=O)CNC1=O` [NODAGA-PEG5-c(RGDfK), NODAGA-PEG5-c(Arg-Gly-Asp-D-Phe-Lys)], the half-inhibitory concentration (IC50) stood at 3.08 ± 0.12 µM on integrin αvβ3 [1], 10.4 ± 0.89 µM at integrin αvβ3 [2], 20.5 ± 4.41 µM at integrin αvβ3 [3] (U87MG spheroids generated with collagen-1 supplementation) and 16.5 ± 2.88 µM on integrin αvβ3 [3] (U87MG spheroids generated without supplementation). On integrin αvβ3 [2] (2D monolayer with BME vs without BME supplementation), the “change of IC50 value by BME” value is given as “triplication”. In addition, the “reduced interaction in 3D spheroids compared to 2D monolayer (fold)” value at integrin αvβ3 [3] (IC50 in 3D U87MG spheroids vs 2D monolayer cell system) is given as 5–7 fold.
